Data set [1] relates to Aspergillus fumigatus. Kind of data set: Antifungal activity against Aspergillus fumigatus IAM2034 infected in iv dosed ICR mouse assessed as protection against fungus-induced lethal infection dosed thrice at 48 hrs interval immediately following fungal challenge and measured on day 20 post infection by Litchfield -Wilcoxon method. It counts as functional. The conditions noted are these: 480 h, time 20 day, read-out: PD50.

A short description of data set [2]: Solubility in water at pH 7.2. It counts as physicochemical.
For data set [3], the system named is Candida albicans. Kind of data set: Antifungal activity against Candida albicans A9540 infected in iv dosed ICR mouse assessed as protection against fungus-induced lethal infection dosed thrice at 48 hrs interval immediately following fungal challenge and measured on day 20 post infection by Litchfield -Wilcoxon method. It counts as functional. The conditions noted are these: 480 h, time 20 day, read-out: PD50.

Data set [4] deals with Candida albicans. Kind of data set: Antifungal activity against Candida albicans infected in mouse assessed as protection against fungus-induced lethal infection. It counts as functional. The note with it: read-out: PD50.
Data set [5] concerns Meyerozyma guilliermondii. The data set can be described thus: Antifungal activity against Candida guilliermondii CLY346 incubated for 24 hrs by liquid microdilution assay. It counts as functional.
Data set [6] relates to Nakaseomyces glabratus. Kind of data set: Antifungal activity against Candida glabrata CLY574 incubated for 24 hrs by liquid microdilution assay. It counts as functional.
Data set [7] relates to Cryptococcus neoformans. The data set can be described thus: Antifungal activity against Cryptococcus neoformans MY2062 incubated for 24 hrs by liquid microdilution assay. It counts as functional.
In data set [8] the test system is Nakaseomyces glabratus. Kind of data set: Antifungal activity against Candida glabrata MY1381 incubated for 24 hrs by liquid microdilution assay. It counts as functional.
Data set [9] has as its system Candida albicans. Kind of data set: Antifungal activity against Candida albicans MY1055 incubated for 24 hrs by liquid microdilution assay. It counts as functional.
The subject of the next data set is Aspergillus flavus. The data set can be described thus: Antifungal activity against Aspergillus flavus MF383 incubated for 24 hrs by liquid microdilution assay. It counts as functional.
A short description of data set [10]: Inhibition of Candida albicans MY1055 1,3-beta-D-glucan synthase assessed as reduction in glucan synthesis by measuring decrease in incorporation of [14C]glucose preincubated for 30 mins followed by pulse-labelling with [U-14C]D-glucose for 30 mins by autoradiography.
Data set [11] has as its system Candida albicans. Kind of data set: Antifungal activity against Candida albicans MY2301 incubated for 24 hrs by liquid microdilution assay. It counts as functional.
Data set [12] has as its system Candida albicans. Kind of data set: Antifungal activity against Candida albicans. It counts as functional.
Data set [13] relates to Meyerozyma guilliermondii. Kind of data set: Antifungal activity against Candida guilliermondii CLY308 incubated for 24 hrs by liquid microdilution assay. It counts as functional.
Data set [14] relates to Cryptococcus neoformans. The data set can be described thus: Antifungal activity against Cryptococcus neoformans MY2061 incubated for 24 hrs by liquid microdilution assay. It counts as functional.
The subject of data set [15] is Aspergillus fumigatus. The data set can be described thus: Antifungal activity against Aspergillus fumigatus MF5668 assessed as inhibition of normal hyphal growth. It counts as functional. The conditions noted are these: time 24 hrs, read-out: MEC.
The next data set has as its system Vanrija humicola. Kind of data set: Antifungal activity against Candida humicola incubated for 24 hrs by serial dilution method. It counts as functional.
In data set [16] the test system is Candida albicans. Kind of data set: Antifungal activity against Candida albicans ATCC 26278 incubated for 24 hrs by serial dilution method. It counts as functional.
Data set [17] relates to Candida albicans. Kind of data set: Antifungal activity against Candida albicans ATCC 10261 incubated for 24 hrs by serial dilution method. It counts as functional.
Data set [18] is described as follows: Inhibition of Candida albicans glucosamine-6-phosphate synthase by Elson-Morgan method.
A further data set deals with Debaryomyces hansenii. The data set can be described thus: Antifungal activity against Candida famata incubated for 24 hrs by serial dilution method. It counts as functional.
The subject of data set [19] is Nakaseomyces glabratus. The data set can be described thus: Antifungal activity against Candida glabrata incubated for 24 hrs by serial dilution method. It counts as functional.
The test system of data set [20] is Candida albicans. The data set can be described thus: Antifungal activity against Candida albicans IAM 888 incubated for 24 hrs by broth microdilution method. It counts as functional.
The subject of data set [21] is Candida tropicalis. Kind of data set: Antifungal activity against Candida tropicalis 85-5 incubated for 24 hrs by broth microdilution method. It counts as functional.
Data set [22] has as its system Candida albicans. Kind of data set: Antifungal activity against Candida albicans 83-2-14 incubated for 24 hrs by broth microdilution method. It counts as functional.
The subject of data set [23] is Candida tropicalis. The data set can be described thus: Antifungal activity against Candida tropicalis IFO10241 incubated for 24 hrs by broth microdilution method. It counts as functional.
For data set [24], the system named is Candida albicans. The data set can be described thus: Antifungal activity against Candida albicans ATCC 32354 incubated for 24 hrs by broth microdilution method. It counts as functional.
Data set [25] deals with Candida albicans. The data set can be described thus: Antifungal activity against Candida albicans A9540 incubated for 24 hrs by broth microdilution method. It counts as functional.

Converted amounts (≈) assume the structure as drawn. Bounds are passed on as bounds.

For `COc1cc(O)c2c(c1)C(=O)c1c(cc3c(c1O)-c1c(cc(C)c(C(=O)N[C@H](CO)C(=O)O)c1O)[C@H](O[C@@H]1O[C@H](C)[C@H](N(C)C)[C@H](O[C@@H]4OC[C@@H](O)[C@H](O)[C@H]4O)[C@H]1O)[C@H]3O)C2=O`, the results for the ED50 in the data set with Aspergillus fumigatus [1], in the data set with Candida albicans [3] and in the data set on Candida albicans [4] were 23 mg/kg, 15 mg/kg and 50 mg/kg, respectively. In data set [2], the solubility is more than 20 mg/mL.

On to `CC(=O)O[C@@H]1C[C@]23C4=CC[C@@]5(C)[C@H](C(=O)O)[C@@](C)([C@H](C)C(C)C)CC[C@]5(C)[C@H]4CC[C@H]2[C@@](C)(COC3O)[C@H]1O[C@@H]1O[C@H](CO)[C@@H](O)[C@H](O)[C@H]1O` (stereo partly drawn) [ENFUMAFUNGIN], for which the MIC was 2 µg/mL (≈ 2.82 µM) in data set [5]; 1 µg/mL (≈ 1.41 µM) against Nakaseomyces glabratus [6]; more than 64 µg/mL against Cryptococcus neoformans [7]; 1 µg/mL (≈ 1.41 µM) with Nakaseomyces glabratus [8]; 0.25 µg/mL (≈ 0.353 µM) against Candida albicans [9]; not above 0.03 µg/mL against Aspergillus flavus. Besides, the MIC is 0.5 µg/mL (≈ 0.705 µM) in the data set with Candida albicans [11], 0.2 µg/mL (≈ 0.282 µM) against Candida albicans [12], 1 µg/mL (≈ 1.41 µM) in data set [13] and more than 64 µg/mL against Cryptococcus neoformans [14]. The IC50 in data set [10] was 0.05 µg/mL (≈ 0.0705 µM). In addition, the minimal effective concentration in the data set with Aspergillus fumigatus [15] was not above 0.03 µg/mL.

With `COP(=O)(OC)OC[C@@H](O)[C@@H](O)[C@H](O)[C@@H](N)CO`, the MIC against Vanrija humicola, against Candida albicans [16], against Candida albicans [17], against Debaryomyces hansenii and against Nakaseomyces glabratus [19] was 300 µg/mL (≈ 1040 µM) in each case. This molecule also yielded an IC50 in data set [18] of 4.75 mM.

As for `CCC/C=C/C=C/C=C/C(=O)OC[C@H]1O[C@@H](O[C@H]2[C@H](OC(=O)/C=C/C=C/C[C@H](O)/C=C/C=C/C=C/CCC)[C@@H](O)[C@@]3(OCc4cc(O)cc(O)c43)O[C@@H]2CO)[C@H](O)[C@@H](O)[C@H]1O`, the MIC against Candida albicans [20], against Candida tropicalis [21], with Candida albicans [22], against Candida tropicalis [23], in the data set on Candida albicans [24] and with Candida albicans [25] was 0.1 µg/mL (≈ 0.117 µM) each time.

Source of the values: ChEMBL document CHEMBL4715849, “Recent Progress in the Discovery of Antifungal Agents Targeting the Cell Wall” (J Med Chem, 2020).
